Test results: patent US5294633A, “Imidazolyl-propenoic acid derivatives” (Bayer Aktiengesellschaft, priority 1991, dated 1994)
≈ marks a conversion by molar mass, not a printed value.

System: isolated rabbit aorta (contractions induced by angiotensin II)
Experiment: Inhibition of the contraction induced with angiotensin II in isolated rabbit aorta rings
Settings: Oryctolagus cuniculus; isolated aorta rings of rabbits in vitro; effect at 3rd = submaximal agonist concentration; read-out: IC50 (g/ml) with respect to contractions induced by AII
Description: Rabbits of both sexes are anaesthetized by a blow to the neck and bled out, or alternatively anaesthetized with Nembutal (about 60-80 mg/kg i.v.) and sacrificed by opening the thorax. The thorax aorta is taken out, freed from adhering connective tissue, divided into 1. 5 Mm wide ring segments and these are individually transferred under an initial loading of about 3.5 g to 10 ml organ baths containing 95% O2 /5% CO2 -aerated Krebs-Henseleit nutrient solution thermostated at 37° C. and of the following composition: 119 mmol/l NaCl; 2.5 mmol/l CaCl2 ×2H2 O; 1.2 mmol/l KH2 PO4; 10 mmol/l glucose; 4.8 mmol/l KCl; 1.4 mmol/l MgSO4 ×7 H2 O and 25 mmol/l NaHCO3.
The contractions are detected isometrically by Statham UC2 cells by means of a bridge amplifier (ifd Mulheim or DSM Aalen) and digitized and evaluated by means of an A/D converter (System 570, Keithley, Munich). The agonist dose-response curves (DRC) are carried out hourly. With each DRC, 3 or 4 individual concentrations are applied to the baths at 4 min intervals. […]
The height of, in the normal case, the 3rd DRC is used as a reference quantity for the assessment of the test substance to be investigated in further passages, which test substance is applied to the baths in increasing dose in each case at the start of the incubation time in the following DRCs. […]

IC50 [µg/mL] | Compound
0.025 (≈ 0.0509 µM) | CCCCc1nc(Cl)c(/C=C/C(=O)OCC)n1Cc1ccc(-c2ccccc2-c2nnn[nH]2)cc1 [Example 1, Ethyl (E)-3-[2-n-butyl-4-chloro-1-{(2'-(tetrazol-5-yl)biphenyl-4-yl)methyl}-1H-imidazol-5-yl]-2-propenoate]
0.021 (≈ 0.0454 µM) | CCCCc1nc(Cl)c(/C=C/C(=O)O)n1Cc1ccc(-c2ccccc2-c2nnn[nH]2)cc1 [Example 2, (E)-3-[2-n-Butyl-4-chloro-1-{(2'-(tetrazol-5-yl)biphenyl-4-yl)methyl}-1H-imidazol-5-yl]-2-propenoic acid]
